Test systems include M14 melanoma; ACHN renal; NCI-H23 lung; OVCAR-3 ovarian; KM12 colon; HCT-116 colon; OVCAR-4 ovarian; SW-620 colon; HOP-62 NSCLC; HCC-2998 colon.
Assay in all cases: growth of human tumour cells (NCI), 48 h

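Where inhibition never reached the appropriate level, the endpoint shown equals the highest concentration tested. Otherwise, values were interpolated linearly from a five-concentration, 48-hour dose response in 96-well plates. GI50: concentration for 50% inhibition of growth. TGI denotes the concentration required for complete inhibition of growth.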

As to `Cc1ccc([N+](=O)[O-])cc1NC(=O)C(=O)C1CCC2=C(Sc3ccccc3N2)C1=O` (stereo not given), the TGI is greater than 100 µM with M14 melanoma; greater than 100 µM in the assay on ACHN renal; greater than 100 µM in the assay on NCI-H23 lung; 90.8 µM with OVCAR-3 ovarian; greater than 100 µM in the assay on KM12 colon; greater than 100 µM in the assay with HCT-116 colon. The TGI in the assay on OVCAR-4 ovarian, with SW-620 colon, in the assay with HOP-62 NSCLC and with HCC-2998 colon was greater than 100 µM in each case.

For the molecule `O=C(O)c1oc2cccc3c2c1CCC3`, the TGI in the assay on M14 melanoma, with ACHN renal, in the assay on NCI-H23 lung, in the assay on OVCAR-3 ovarian, in the assay with KM12 colon and in the assay on HCT-116 colon was greater than 100 µM each time. For the same molecule, the TGI in the assay with OVCAR-4 ovarian, with SW-620 colon, in the assay on HOP-62 NSCLC and with HCC-2998 colon was greater than 100 µM in each case.

As for `CN1N=Nc2c(C(F)(F)F)nn(-c3ccccc3)c2N(C)C1=O`, the GI50 in the assay with M14 melanoma, with ACHN renal, in the assay on NCI-H23 lung, in the assay on OVCAR-3 ovarian, in the assay with KM12 colon and with HCT-116 colon was greater than 100 µM in each case. For the same molecule, the GI50 in the assay on OVCAR-4 ovarian, in the assay on SW-620 colon, in the assay on HOP-62 NSCLC and with HCC-2998 colon was greater than 100 µM in each case. For the same molecule, the TGI with M14 melanoma, with ACHN renal, with NCI-H23 lung, with OVCAR-3 ovarian, with KM12 colon and in the assay on HCT-116 colon was greater than 100 µM each time. For the same molecule, the TGI in the assay on OVCAR-4 ovarian, with SW-620 colon, in the assay on HOP-62 NSCLC and in the assay on HCC-2998 colon was greater than 100 µM throughout.

Turning to `O=C(O)c1cc2c(c3ccsc13)-c1ccccc1CC2`, the GI50 was 42.2 µM with M14 melanoma; 36.6 µM in the assay with ACHN renal; 30.1 µM in the assay with NCI-H23 lung; 28.8 µM in the assay on OVCAR-3 ovarian; 34.3 µM in the assay on KM12 colon; 34.9 µM with HCT-116 colon. Moreover, the GI50 was 23.3 µM in the assay with OVCAR-4 ovarian, 40.2 µM with SW-620 colon, 31.8 µM in the assay on HOP-62 NSCLC and 24.2 µM in the assay on HCC-2998 colon. Also, the TGI in the assay with M14 melanoma was greater than 100 µM; with ACHN renal it was greater than 100 µM; with NCI-H23 lung, 79.5 µM; in the assay on OVCAR-3 ovarian, greater than 100 µM; in the assay on KM12 colon, greater than 100 µM; in the assay on HCT-116 colon, greater than 100 µM. The TGI with OVCAR-4 ovarian is greater than 100 µM; in the assay with SW-620 colon, greater than 100 µM; in the assay on HOP-62 NSCLC, greater than 100 µM; in the assay on HCC-2998 colon, 69.6 µM.

Consider `N#C/C(=C\c1cccnc1)c1nc2ccccc2o1`, for which the GI50 with M14 melanoma, in the assay on ACHN renal, in the assay on NCI-H23 lung, in the assay with OVCAR-3 ovarian, with KM12 colon and in the assay with HCT-116 colon was greater than 100 µM throughout. The GI50 in the assay with OVCAR-4 ovarian, in the assay with SW-620 colon, in the assay on HOP-62 NSCLC and in the assay with HCC-2998 colon was greater than 100 µM throughout. The TGI in the assay on M14 melanoma, in the assay with ACHN renal, in the assay with NCI-H23 lung, in the assay with OVCAR-3 ovarian, with KM12 colon and in the assay on HCT-116 colon was greater than 100 µM throughout. Besides, the TGI with OVCAR-4 ovarian, in the assay on SW-620 colon, in the assay with HOP-62 NSCLC and with HCC-2998 colon was greater than 100 µM each time.

Consider `COc1cccc2ccc3c(c12)C(=O)OC31CCc2c(C)cccc21` (stereo not given), for which the TGI in the assay on M14 melanoma is greater than 46.4 µM; in the assay on ACHN renal, 40.5 µM; with NCI-H23 lung, greater than 46.4 µM; in the assay with OVCAR-3 ovarian it was greater than 46.4 µM; with KM12 colon it was greater than 100 µM; in the assay with HCT-116 colon, greater than 31.6 µM. Moreover, the TGI in the assay on OVCAR-4 ovarian, in the assay on SW-620 colon, with HOP-62 NSCLC and in the assay with HCC-2998 colon was greater than 46.4 µM each time.

For `[N-]=[N+]=Nc1c(Br)c(=O)[nH]c(=O)n1COCCO`, the TGI in the assay on M14 melanoma, in the assay with ACHN renal, in the assay on NCI-H23 lung, with OVCAR-3 ovarian, in the assay on KM12 colon and in the assay with HCT-116 colon was greater than 100 µM each time. Besides, the TGI in the assay with OVCAR-4 ovarian, with SW-620 colon, in the assay with HOP-62 NSCLC and in the assay on HCC-2998 colon was greater than 100 µM each time.

As for `NC(=S)N/N=C\c1nccc2c(C(F)(F)C(F)(F)C(F)(F)F)cccc12`, the GI50 in the assay on M14 melanoma is 0.0662 µM; with ACHN renal, 0.0582 µM; with NCI-H23 lung it was 0.422 µM; in the assay with OVCAR-3 ovarian, 0.0347 µM; with KM12 colon, 0.0825 µM; in the assay on HCT-116 colon it was 0.0348 µM. Besides, the GI50 was 0.0329 µM with OVCAR-4 ovarian, 0.0538 µM with SW-620 colon, 0.0752 µM with HOP-62 NSCLC and 0.229 µM in the assay with HCC-2998 colon. Also, the TGI with M14 melanoma is 0.589 µM; in the assay with ACHN renal, 1.31 µM; in the assay on NCI-H23 lung it was 12.4 µM; with OVCAR-3 ovarian, 2.22 µM; in the assay with KM12 colon it was 8.05 µM; in the assay with HCT-116 colon it was 1.45 µM. Further, the TGI with OVCAR-4 ovarian was 1.49 µM; with SW-620 colon, 24.3 µM; in the assay on HOP-62 NSCLC, 1.25 µM; in the assay on HCC-2998 colon, 4.48 µM.

Regarding `O=C1OC(c2ccccc2)=N/C1=C/N1CCCC1C(=O)O` (stereo not given), the TGI in the assay with M14 melanoma, with ACHN renal, with NCI-H23 lung, with OVCAR-3 ovarian, in the assay on KM12 colon and with HCT-116 colon was greater than 100 µM throughout. Also, the TGI in the assay with OVCAR-4 ovarian, with SW-620 colon, in the assay with HOP-62 NSCLC and with HCC-2998 colon was greater than 100 µM each time.

Consider `CC(=O)Nc1cc2cc(NS(=O)(=O)c3cc(C(F)(F)F)cc(C(F)(F)F)c3)ccc2oc1=O`, for which the TGI in the assay on M14 melanoma, in the assay with ACHN renal, with NCI-H23 lung, in the assay with OVCAR-3 ovarian, in the assay on KM12 colon and in the assay with HCT-116 colon was greater than 100 µM in each case. The TGI in the assay with OVCAR-4 ovarian, in the assay on SW-620 colon, in the assay on HOP-62 NSCLC and in the assay on HCC-2998 colon was greater than 100 µM in each case.

The values are drawn from PubChem BioAssay (NCI).
